Source: article PMC8841740, “Fluorescent Ligand-Based Discovery of Small-Molecule Sulfonamide Agonists for GPR120” (Frontiers in Chemistry, 2022)

Experiments:
GPR120 [1] = details: cited from earlier work
GPR120 [2] = target: T1, GPR120 (Homo sapiens, UniProt Q5NUL3); experiment: BRET activity test (β-arrestin-2 recruitment, GPR120-YFP / β-arrestin-2-Rluc in HEK293 cells); type: cell-based; parameters: host or cells: HEK293 (transfected with both plasmids); details: for Emax (FFA4 β-arrestin2): GSK137647A used as a standard
T1 sequence (Q5NUL3 1-361): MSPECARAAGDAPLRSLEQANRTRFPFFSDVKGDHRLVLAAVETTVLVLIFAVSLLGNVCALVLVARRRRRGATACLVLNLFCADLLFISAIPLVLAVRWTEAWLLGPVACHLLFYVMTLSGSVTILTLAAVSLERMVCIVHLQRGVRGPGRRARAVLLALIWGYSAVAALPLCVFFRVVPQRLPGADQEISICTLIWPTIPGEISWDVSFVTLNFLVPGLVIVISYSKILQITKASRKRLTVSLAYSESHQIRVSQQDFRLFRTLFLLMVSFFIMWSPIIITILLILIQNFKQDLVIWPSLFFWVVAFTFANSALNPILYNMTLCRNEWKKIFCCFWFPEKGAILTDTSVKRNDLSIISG
Protocol: GPR120-YFP and β-arresting-2-Rluc plasmids were transfected into HEK293 cells. After a 24-h incubation, the cells were seeded in a black 96-well plate (100 μl, 20,000 cells per well). Followed by a 24-h incubation, the solution was removed from the plate, and compounds with different concentrations (100 μl per well) and coelenterazine (10 μM, 100 μl per well) were added, followed by the fluorescence intensity was measured at 460 and 520 nm with the microplate reader ([Christiansen et al., 2016]; [Hill et al., 2018]).

GPR120 [3] = target: T1, GPR120; experiment: GPR120 Ca2+ flow assay in HEK293 cells stably transfecting the GPR120-Rluc gene; type: cell-based; parameters: expressed in transfected cells; details: for Emax (FFA4 Ca2+): GSK137647A used as a standard
Protocol: Ca^2+ flow activity was determined in HEK293 cells stably transfecting the GPR120-Rluc gene. After incubating the cells for 24 h, the medium was removed from the plate, and the cells were washed with HBSS buffer (without Ca^2+ and Mg^2+). Subsequently, a 2-μM Fluo-4 AM working solution in HBSS buffer (without Ca^2+ and Mg^2+) was added to the plate (40 μl per well).

GPR40 = target: T2, GPR40 (Homo sapiens, UniProt O14842); experiment: GPR40 Ca2+ flow assay in CHO cells with transient GPR40 gene; type: cell-based; details: CHO cells, GPR40; read-out: FFA1 (Ca2+ pEC50) (converted)
T2 construct: expressed in transfected cells; host or cells: CHO (transient)
Protocol: Ca^2+ flow activity was determined in HEK293 cells stably transfecting the GPR120-Rluc gene. After incubating the cells for 24 h, the medium was removed from the plate, and the cells were washed with HBSS buffer (without Ca^2+ and Mg^2+). Subsequently, a 2-μM Fluo-4 AM working solution in HBSS buffer (without Ca^2+ and Mg^2+) was added to the plate (40 μl per well). After incubating the cells for 20 min at 37°C, compound solution at different concentrations in HBSS buffer (per well 160 μl) was added. Followed by a 40-min incubation, the solution was removed from the plate, HEPES buffer (200 μl per well) was added, and the fluorescence intensity was detected using the microplate reader (Ex: 488 nm; Em: 520 nm) ([Watterson et al., 2017]).
Ca^2+ flow activity was determined in CHO cells with transient GPR40 gene by the same method as well, in which the GPR40 agonist TAK875 was used as a positive control.

GPR120 [4] = target: T1, GPR120; experiment: Preliminary screening of agonists by BRET competition with probe N1; type: binding; parameters: expressed in transfected cells; details: 10 μM compound, probe N1 400 nM
Protocol: HEK293 cells stably transfected with the GPR120-Rluc gene were seeded in a black 96-well plate (100 μl, 2 × 10^4 cells per well). After a 24-h incubation, the medium was removed, probe N1 (400 nM, 50 μl per well) was added, and 10 μM of the compound was added after a 30-min incubation as well. Followed by a 40-min incubation, coelenterazine (final concentration: 10 μM, 50 μl per well) was added to the plate. Afterward, the fluorescence intensity was measured at 450 and 550 nm with the microplate reader after another 10-min incubation.

[5] = Optical property of fluorescent probes; type: physicochemical; details: for λabs: MeCN; for Φ (absolute quantum yield) / λem / λex: PBS; for SS (stokes shift): PBS buffer (pH = 7.4)
Protocol: The stocking solution of probes was diluted with acetonitrile to 40 μM, and their ultraviolet absorption spectrum was scanned with an ultraviolet spectrophotometer. Secondly, the excitation and emission spectra of probes at 10, 20, 30, and 40 μM with PBS buffer were measured with a microplate reader. Moreover, the excitation and emission spectrum were recorded in four solvents: MeCN, DMSO, H2O, and EA, respectively.

[6] = Table 3, read-out: FFA4 (β-arrestin2 pEC50) (converted)
[7] = Table 3, read-out: FFA4 (Ca2+ pEC50) (converted)
[8] = GPR120, β-arrestin-2 activity test, read-out: pEC50 BRET (converted)
[9] = GPR120, Ca2+ flow, HEK293 GPR120-Rluc cells, read-out: pEC50 Ca2+ assay (converted)

Compound: Cc1ccc(S(=O)(=O)NC2c3ccccc3Oc3ccccc32)cc1 [AH-7614]
- pEC50 (Literature) (GPR120 [1]): <4.5^16

Compound: Cc1cc(C)c(NS(=O)(=O)c2ccc(-c3ccccc3)cc2)c(C)c1 [Compound B1, N-Mesityl-[1,1′-biphenyl]-4-sulfonamide]
- melting point: 165 to 166 °C

Compound: Cc1cc(C)c(NS(=O)(=O)c2ccc(-c3ccc(F)cc3)cc2)c(C)c1 [Compound B2, 4′-Fluoro-N-Mesityl-[1,1′-Biphenyl]-4-Sulfonamide]
- melting point: 214 to 215 °C

Compound: Cc1cc(C)c(NS(=O)(=O)c2ccc(-c3ccc(Br)cc3)cc2)c(C)c1 [Compound B3, 4′-Bromo-N-Mesityl-[1,1′-Biphenyl]-4-Sulfonamide]
- melting point: 176 to 177 °C

Compound: Cc1ccc(-c2ccc(S(=O)(=O)Nc3c(C)cc(C)cc3C)cc2)cc1 [Compound B4, N-Mesityl-4′-Methyl-[1,1′-Biphenyl]-4-Sulfonamide]
- melting point: 195 to 196 °C

Compound: Cc1cc(C)c(NS(=O)(=O)c2ccc(-c3ccc(OC(F)(F)F)cc3)cc2)c(C)c1 [Compound B5, N-Mesityl-4′-(Trifluoromethoxy)-[1,1′-Biphenyl]-4-Sulfonamide]
- Emax (FFA4 β-arrestin2) (GPR120 [2]): 0.790
- EC50 (GPR120 [2]; [6]): 0.0437 µM
- melting point: 169 to 170 °C
- Emax (FFA4 Ca2+) (GPR120 [3]): 1.27
- EC50 (GPR120 [3]; [7]): 0.0813 µM
- EC50 (GPR40): > 50.1 µM
- inhibition rate in BRET screening compared with GSK137647A (GPR120 [4]): higher than GSK137647A

Compound: Cc1cc(C)c(NS(=O)(=O)c2ccc(-c3ccc(N)c(F)c3)cc2)c(C)c1 [Compound B6, 4′-Amino-3′-Fluoro-N-Mesityl-[1,1′-Biphenyl]-4-Sulfonamide]
- Emax (FFA4 β-arrestin2) (GPR120 [2]): 0.881
- EC50 (GPR120 [2]; [6]): 0.132 µM
- melting point: 176 to 177 °C
- Emax (FFA4 Ca2+) (GPR120 [3]): 1.25
- EC50 (GPR120 [3]; [7]): 0.204 µM
- EC50 (GPR40): > 50.1 µM
- inhibition rate in BRET screening compared with GSK137647A (GPR120 [4]): higher than GSK137647A

Compound: Cc1cc(C)c(NS(=O)(=O)c2ccc(-c3ccc4ccccc4c3)cc2)c(C)c1 [Compound B7, N-Mesityl-4-(Naphthalen-2-yl)benzenesulfonamide]
- Emax (FFA4 β-arrestin2) (GPR120 [2]): 0.894
- EC50 (GPR120 [2]; [6]): 0.0195 µM
- melting point: 211 to 212 °C
- Emax (FFA4 Ca2+) (GPR120 [3]): 0.285
- EC50 (GPR120 [3]; [7]): 0.138 µM
- EC50 (GPR40): > 50.1 µM
- inhibition rate in BRET screening compared with GSK137647A (GPR120 [4]): higher than GSK137647A

Compound: Cc1cc(C)c(NS(=O)(=O)c2ccc(-c3ccc(Cl)cc3)cc2)c(C)c1 [Compound B8, 4′-Chloro-N-Mesityl-[1,1′-Biphenyl]-4-Sulfonamide]
- melting point: 214 to 215 °C

Compound: Cc1cc(C)cc(COc2ccc(S(=O)(=O)Nc3c(C)cc(C)cc3C)cc2)c1 [Compound C1, 4-((3,5-Dimethylbenzyl)oxy)-N-mesitylbenzenesulfonamide]
- melting point: 152 to 153 °C

Compound: Cc1cc(C)c(NS(=O)(=O)c2ccc(OCc3c(F)cccc3C(F)(F)F)cc2)c(C)c1 [Compound C2, 4-((2-Fluoro-6-(trifluoromethyl)benzyl)oxy)-N-mesitylbenzenesulfonamide]
- melting point: 154 to 155 °C

Compound: Cc1cc(C)c(NS(=O)(=O)c2ccc(OCc3ccc(Br)cc3)cc2)c(C)c1 [Compound C3, 4-((4-Bromobenzyl)oxy)-N-mesitylbenzenesulfonamide]
- melting point: 161 to 162 °C

Compound: COc1ccc(NS(=O)(=O)c2ccc(-c3ccc(OC(F)(F)F)cc3)cc2)cc1OC [Compound D1, N-(3,4-Dimethoxyphenyl)-4′-(Trifluoromethoxy)-[1,1′-Biphenyl]-4-Sulfonamide]
- melting point: 145 to 146 °C

Compound: O=S(=O)(Nc1ccc(OC(F)(F)F)cc1)c1ccc(-c2ccc(OC(F)(F)F)cc2)cc1 [Compound D2, 4′-(Trifluoromethoxy)-N-(4-(Trifluoromethoxy)phenyl)-[1,1′-Biphenyl]-4-Sulfonamide]
- melting point: 139 to 140 °C

Compound: COc1cc(NS(=O)(=O)c2ccc(-c3ccc(OC(F)(F)F)cc3)cc2)cc(OC)c1OC [Compound D3, 4′-(Trifluoromethoxy)-N-(3,4,5-Trimethoxyphenyl)-[1,1′-Biphenyl]-4-Sulfonamide]
- melting point: 136 to 137 °C

Compound: O=S(=O)(Nc1ccc(Oc2ccccc2)cc1)c1ccc(-c2ccc(OC(F)(F)F)cc2)cc1 [Compound D4, N-(4-Phenoxyphenyl)-4′-(Trifluoromethoxy)-[1,1′-Biphenyl]-4-Sulfonamide]
- melting point: 144 to 145 °C

Compound: O=S(=O)(Nc1ccc(Cl)cc1Cl)c1ccc(-c2ccc3ccccc3c2)cc1 [Compound D7, N-(2,4-Dichlorophenyl)-4-(naphthalen-2-yl)benzenesulfonamide]
- Emax (FFA4 β-arrestin2) (GPR120 [2]): 1.17
- EC50 (GPR120 [2]; [6]): 0.0166 µM
- melting point: 175 to 176 °C
- Emax (FFA4 Ca2+) (GPR120 [3]): 0.752
- EC50 (GPR120 [3]; [7]): 0.129 µM
- EC50 (GPR40): > 50.1 µM
- inhibition rate in BRET screening compared with GSK137647A (GPR120 [4]): higher than GSK137647A

Compound: Cc1cc(C)c(NS(=O)(=O)c2ccc(NCCCN3C(=O)c4cccc5c(N(C)C)ccc(c45)C3=O)cc2)c(C)c1 [Compound N2, 4-((3-(6-(Dimethylamino)-1,3-dioxo-1H-benzo[de]isoquinolin-2(3H)-yl)propyl)amino)-N-mesitylbenzenesulfonamide]
- EC50 (GPR120 [2]; [8]): 0.562 µM
- melting point: 103 to 104 °C
- EC50 (GPR120 [3]; [9]): 6.31 µM
- λabs [5]: 418 nm
- Φ (absolute quantum yield) [5]: 2.28%
- λem [5]: 562 nm
- λex [5]: 439 nm
- SS (stokes shift) [5]: 123 nm

Compound: Cc1cc(C)c(NS(=O)(=O)c2ccc(NCCCCN3C(=O)c4cccc5c(N(C)C)ccc(c45)C3=O)cc2)c(C)c1 [Compound N3, 4-((4-(6-(Dimethylamino)-1,3-dioxo-1H-benzo[de]isoquinolin-2(3H)-yl)butyl)amino)-N-mesitylbenzenesulfonamide]
- EC50 (GPR120 [2]; [8]): 1.78 µM
- melting point: 184 to 185 °C
- EC50 (GPR120 [3]; [9]): 8.91 µM
- λabs [5]: 417 nm
- Φ (absolute quantum yield) [5]: 1.03%
- λem [5]: 560 nm
- λex [5]: 438 nm
- SS (stokes shift) [5]: 122 nm
